In brackets after ≈: the same amount, converted by molar mass.
Key:
[1] = DPPH test method (percent reducing activity, antioxidant activity); format: biochemical; details: for IC 50%: DPPH reducing activity; for Reductive activity at 30 μg/ml: DPPH, absorbance at 517 nm after 20 minutes
Experimental: A DPPH concentrate (2.5×) of 25 mg of 1,1-Diphenyl-2-Picyrl-Hydrazyl ACS#1898-66-4 (Sigma #D-9132, lot 99H3601) dissolved in 250 mL ethanol (USP), is prepared fresh on the measurement date. A DPPH working solution is then prepared by diluting 100 mL of this concentrate to a final volume of 250 mL (100 μM/mL). A blank 13×100 mm borosilicate glass screw top tube of ethanol (USP) is used to zero the spectrometer (Milton Roy, Spectronic 20+) at 517 nm and a control tube of DPPH working solution is measured under identical conditions, and taken as 0% activity. Aliquots of the 0.25% & 0.5% (RT & 45° C.) test solution are added to tubes followed by the rapid addition of 4 mL DPPH working solution then rapidly capped and mixed. After 20 minutes, the absorbance of each sample is read at 517 nm.
The percent reducing activity (%RA) is calculated using the following equation: [formula]
Where A(0) is the absorbance value of the DPPH working solution at 517 nm zeroed against an ethanol blank and A(20) is the absorbance at 517 nm, 20 minutes after combining the antioxidant with the DPPH working solution.
The concentration of antioxidant (mg/ml) in the final assay mixture is calculated based on the dilution of respective aliquots of each compound in the final assay volume and %RA tabulated and plotted as percent activity at each concentration in the dilution series.

[2] = Chelating property: free coordination sites in Fe3+-antioxidant complex, UV spectrophotometric azide method; format: physicochemical
Experimental: (§1) Iron-catalyzed formation of a hydroxyl radical from a superoxide anion radical and hydrogen peroxide requires the availability of at least one iron coordination site that is either empty or occupied by a readily dissociable ligand, such as water. […] Martell et al, 1957). The results are recorded in Tables 1 and 2. [table]

[3] = Chelating property: free coordination sites in Cu2+-antioxidant complex, UV spectrophotometric azide method; format: physicochemical
Experimental: as §1

[4] = UV absorption (λmax, εmax); format: physicochemical; details: for λmax: Example 3 in EtOH:water-70%:30%; for εmax: at λmax
Experimental: The mass was degassed for one hour at 90-95 deg. C. under vacuum. The yield obtained is about 85%. […] A 50% solution in water was prepared for ease of handling.
This material was prepared by following the procedure described in Example 3, except syringaldehyde was replaced with vanillin as a starting material. The product has a λmax at 334 nm (ε max 18050 cm^−1 mol^−1). A 50% solution in water was prepared for ease of handling.

[5] = Solubility in water / aqueous-ethanolic solution; format: physicochemical; details: for Solubility in water: water / aqueous solution
[6] = Comparative photostability of thin films under UV A and UV B irradiation; format: physicochemical; details: thin film, UV A (2 MED/h) and UV B (1 MED/h), 8 h, FIGS. 1 and 2
Experimental: The photostability of compounds of the present invention as well as existing commercial cationic sunscreens is tested according to the procedure described below:
Photostability: Comparative Photostability of Example 3, Incroquat® 283 and Escalol® HP610
Three products [Example 3 (1%), Incroquat 283 (1%) and HP610 (0.1%)] were tested for their photostability by dissolving separately in water or ethanol-water solution containing 0.1% Poly(vinylpyrrolidone-vinyl acetate) copolymer (PVP-VA S630 from ISP). Air drying on a glass plate for one hour gave a thin film, which were irradiated under UV A (2 MED/h) and UV B (1 MED/h) light separately over an 8 h period in a Q-UV Accelerated Weathering Tester. Photodegradation was calculated from the decrease in the maximum absorption of the respective products. The results are illustrated in FIGS. 1 and 2.

Compound	IC 50% [1] [µg/mL]	Reductive activity at 30 μg/ml [1] [%]	Iron chelation / water coordination of the complex [2]	Copper chelation / water coordination of the complex [3]	λmax [4] [nm]	εmax [4]	Solubility in water [5]	Photostability relative to commercial cationic sunscreens [6]	maximal concentration in aqueous-ethanolic solution ([5]; aqueous-ethanolic solution (30:70%)) [%]
CCCCCCCCCCCC[N+](C)(C)CCCNC(=O)C(C#N)=Cc1cc(OC)c(O)c(OC)c1.CS(=O)(=O)[O-] [Example 2, N-(3-Dimethyl-3-dodecylaminopropyl)-alpha-cyano-3,5-dimethoxy-4-hydroxy Cinnamide Methane Sulphonate]	129	28							
Bis-N-[3(N,N-dimethylamino)propyl]-3,5-dimethoxy-4-hydroxybenzylidene Malonamide Bis Ethylsulfate [Example 3]	118	22	absence of any water coordination	absence of any water coordination	323	10,500 cm^−1 mol^−1	highly soluble in water	much higher photostability	
COc1cc(/C=C(/C(C)=O)C(=O)NCCCN(C)C)cc(OC)c1O [Example 1, N-(3-Dimethylaminopropyl)-alpha-acyl-3,5-dimethoxy-4-hydroxy Cinnamide]	79 (≈ 225 µM)	23							
CCCCCCCCCCCC[N+](C)(C)CCCNC(=O)c1ccc(N(C)C)cc1.Cc1ccc(S(=O)(=O)[O-])cc1 [Escalol® HP 610]			do not have iron-or copper-chelating properties	do not have iron-or copper-chelating properties			very poor solubility		0.25
Bis-N-[3(N,N-dimethylamino)propyl]-3-methoxy-4-hydroxybenzylidene Malonamide Bis Ethylsulfate [Example 4]	188	8			334	18050 cm⁻¹ mol⁻¹			
